# Laboratory results: PMC10059712, “Structure Elucidation of Two Intriguing Neo-Debromoaplysiatoxin Derivatives from Marine Cyanobacterium Lyngbya sp. Showing Strong Inhibition of Kv1.5 Potassium Channel and Differential Cytotoxicity” (Molecules, 2023)
# Target: T1, Kv1.5 K+ channel (Homo sapiens, UniProt P22460)
# T1 construct: gene KCNA5; human Kv1.5 stably expressed in LTK cells (LTK-Kv1.5)
# Assay: patch clamp of Kv1.[…] currents in LTK-Kv1.[…] cells
# Format: cell-based
# T1 sequence (P22460 whole entry): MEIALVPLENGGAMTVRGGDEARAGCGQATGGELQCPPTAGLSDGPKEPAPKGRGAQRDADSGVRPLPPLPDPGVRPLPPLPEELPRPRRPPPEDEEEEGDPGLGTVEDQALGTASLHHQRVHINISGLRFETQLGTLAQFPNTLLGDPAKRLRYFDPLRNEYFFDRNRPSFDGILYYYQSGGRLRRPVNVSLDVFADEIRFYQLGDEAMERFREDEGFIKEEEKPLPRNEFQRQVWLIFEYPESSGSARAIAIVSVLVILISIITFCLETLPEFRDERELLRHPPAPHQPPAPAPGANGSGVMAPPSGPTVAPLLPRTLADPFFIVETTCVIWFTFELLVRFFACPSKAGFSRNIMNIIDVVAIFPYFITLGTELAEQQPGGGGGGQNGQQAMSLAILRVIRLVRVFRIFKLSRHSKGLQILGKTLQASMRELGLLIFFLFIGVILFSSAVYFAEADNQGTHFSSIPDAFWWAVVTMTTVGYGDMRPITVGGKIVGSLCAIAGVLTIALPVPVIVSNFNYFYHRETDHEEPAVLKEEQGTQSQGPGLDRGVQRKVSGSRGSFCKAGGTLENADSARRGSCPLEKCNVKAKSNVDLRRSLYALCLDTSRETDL
row,Compound,IC50
1,"CO[C@@H](CC[C@H](C)[C@H]1O[C@]23C[C@H](OC(=O)C[C@H]([C@@H](C)O)OC(=O)CC(=O)C(C)(CC2(C)C)OO3)[C@@H]1C)c1cccc(O)c1 [compound 2, neo-debromoaplysiatoxin J]",1640 ± 150 nM
2,"CO[C@@H](CC[C@H](C)[C@H]1O[C@]2(O)[C@H]3[C@@H](OC(=O)C[C@]3(O)[C@H](C)CC2(C)C)[C@@H]1C)c1cccc(O)c1 [compound 1, neo-debromoaplysiatoxin I]",2590 ± 370 nM
